For `c1ccc(-c2nn3c(c2-c2ccnc4cc(OCCN5CCOCC5)ccc24)CCCCC3)nc1` [Example 4, 3-[7-(2-Morpholin-4-yl-ethoxy)-quinolin-4-yl]-2-pyridin-2-yl-5,6,7,8-tetrahydro-4H-pyrazolo[1,5-a]azepine], which melting point is on record?
The melting point was 157 to 159 °C.

Source: patent publication US20060079680A1, “Pyrazoloazepine compounds as pharmaceutical agents” (Eli Lilly and Company Patent Division, priority 2002, published 2006)
